Measurements published in US8734775B2, “Chemokine derived peptides that bind with chemokine receptor CXCR3 and uses for chronic wound and angiogenesis inhibition treatments” (University of Pittsburgh, priority 2011, dated 2014).

What was measured:
[1] = test system: HMEC-1 cells; assay: Tube dissociation assay on GFR-Matrigel; format: cell-based, human; settings: IP-10dp 10 μM
Procedure: For this tube dissociation assay, HMEC-1 cells were first re-suspended in 1% FBS MCDB131 media containing VEGF (75 ng/ml) and incubated on GFR-Matrigel for 24 hrs at 37° C. to allow tube formation (the average result reflected labeled “24 VEGF . . . ” in FIG. 5B). The media was removed and replaced with combinations of VEGF (75 ng/ml), IP-10 (300 ng/ml), or IP-10dp (10 μM) then incubated for another 24 hours. After 48 hours, tubes were still present in the controls treated only with VEGF (labeled 48 hr VEGF in FIG. 5B).
The cells cultures were imaged to assess tube formation using similar procedures to that described above for Experiment 3. […]
Again, quantification of the endothelial tube area for the various cell cultures was determined using MetaMorph, and the data reported in the graph are of at least N=6 and normalized to no treatment (average±SEM), with *P<0.05.

[2] = test system: HMEC-1 cells transfected with CXCR3 siRNA; assay: Scratch assay in cells transfected with CXCR3 siRNA; format: cell-based, human; settings: CXCR3 knockdown; procedure of Experiment 2
Procedure: In the various experiments described below, to the extent not otherwise noted, CXCR3 siRNA transfection was preformed according to the procedure as previously described by Koh et al. (“Methods in Enzymology,” 2008, vol 443, p. 84), and summarized briefly as follows. HMEC-1 cells were plated in 6 well tissue culture plate at 4.0×10^5 cells/well in complete MCDB131 media and incubated overnight. The cells were ˜75% confluent. The media was removed and replaced with serum free Opti-Mem and incubated for 30 minutes. Dharmafect #4 was added to Opti-Mem to a final concentration of 2.5% (final volume […]) then incubated for 5 minutes at room temp. In parallel, CXCR3 siRNA was diluted in Opti-Mem to a final concentration of […] then incubated for 5 minutes at room temp. CXCR3 siRNA was a pool of equal concentration from Sigma and Santa Cruz. The Dharmafect solution was added to the CXCR3 siRNA pool and incubated for 20 minutes at room temp. […]
To determine whether IP-10dp inhibits endothelial cell motility, a conventional “scratch assay” was performed. […] Images were taken at time zero and 24 hours, and the relative distance traveled by the cells into the a cellular area was determined using MetaMorph. The HMEC-1 culture images were analyzed for the ability of the cells to migrate into a denuded area over a 24 hour period in the presence or absence of VEGF165. […]

[3] = test system: VEGF-induced new vessel formation; assay: In vivo Matrigel plug assay, vessel development; design: species or system C57Bl/6 mice; settings: mice, day 10
Procedure: To determine whether IP-10dp is able to inhibit vessel growth, an in vivo Matrigel assay was used to establish that IP-10dp is able to inhibit angiogenesis. Vessel development and regression in vivo was determined generally according to the method previously described by Bodnar et al. (see Bodnar et al., 2006, supra). In brief, for vessel development GFR Matrigel supplemented with VEGF165 in the absence or presence of IP-10 or IP-10dp was injected into the groin area of the mice. Ten days post inoculation; the Matrigel plug was removed and stained with Masson Trichrome to visualize endothelial infiltration.
Specifically, Matrigel with VEGF was injected into the groin area near the dorsal midline of 12-month-old C57Bl/6 female mice. In addition to Matrigel plus VEGF, the mice were injected with saline (control), 10 μg of IP-10 or 100 μg of IP-10dp. Two injections were made in each mouse in separate dorsal areas, one control injection and the other with the designated experimental treatment. On day 10, the Matrigel plugs were removed and either paraffin embedded or flash frozen. They were prepared and examined histologically for new vessel development using Masson's trichrome staining. […] This particular result is taken as being indicative that IP-10dp has the ability to inhibit VEGF-induced new vessel formation.

[4] = test system: HMEC-1 cells; assay: Scratch assay of endothelial cell motility; format: cell-based, human; settings: 24 hours
Procedure: To determine whether IP-10dp inhibits endothelial cell motility, a conventional “scratch assay” was performed. ELR-negative chemokines, such as IP-10, inhibit fibroblast and endothelial cell motility. IP-10 has been shown in prior literature to inhibit HMEC-1 cells' motility in the presence of angiogenic growth factors VEGF165 and bFGF. Thus, a scratch assay comparison was conducted to examine whether, and to what extent, IP-10dp could mimic the inhibitory effects of the full length IP-10. HMEC-1 cells were plated at 2.5×10^5 cells/well in 12 well culture plates and grown to 80 to 85% confluence and quiesced in 0.5% dialyzed fetal bovine serum for 24 hours at 37° C. in 5% CO2. The cells were washed one time with PBS and then incubated in 0.5% dialyzed MDCB 131 media for 24 hours at 37° C. in 5% CO2. The cultures were scraped with a rubber policeman making a 1 mm wide denuded area. […] Images were taken at time zero and 24 hours, and the relative distance traveled by the cells into the a cellular area was determined using MetaMorph. The HMEC-1 culture images were analyzed for the ability of the cells to migrate into a denuded area over a 24 hour period in the presence or absence of VEGF165.

PESKAIKNLLKAVSKEMSKRSP (IP-10dp; listed as Homo sapiens) [synthetic fragment of IP-10 comprising residues 78-98, the C-terminal α-helical domain]
endothelial cords following treatment ([1]; 24-48 hrs): significant decrease in endothelial cords | dissociation of newly formed tubes ([1]; treatment 24-48 hrs, presence and absence of VEGF, IP-10 300 ng/ml): induce dissociation of newly formed tubes | inhibition of VEGF-induced motility in CXCR3 siRNA-transfected cells [2]: unable to inhibit VEGF-induced motility | inhibition of VEGF-induced angiogenesis in Matrigel plug ([3]; 10 μg IP-10 or 100 μg IP-10dp with Matrigel plus VEGF, Masson's trichrome): inhibited this angiogenesis | inhibition of VEGF-induced new vessel formation compared with IP-10 ([3]; 100 μg IP-10dp vs 10 μg IP-10): more effective than IP-10 | inhibition of endothelial cell migration, excess over IP-10 ([4]; IP-10dp 10 μM vs IP-10 200 ng/ml): 10% | inhibition of HMEC-1 cell motility ([4]; IP-10dp 10 μM, with and without VEGF (100 ng/ml)): inhibited motility
